# According to US11980633B2, “Method for treating cancer using a combination of DNA-damaging agents and DNA-PK inhibitors” (Vertex Pharmaceuticals Incorporated, priority 2016, dated 2024):
# Experiments:
# Format in all cases: cell-based
# [1] = test system: primary human endometrial tumors (dissociated cells); assay: Tumor Chemosensitivity Assay (TCA): Compound B-2 with doxorubicin, primary endometrial tumors, viability after 6 days, Bliss
# Experimental: Specifically, one study described the combination of Compound B-2 and doxorubicin hydrochloride. In this study, a panel of primary human ovarian and endometrial tumors was dissociated and treated with Compound B-2 to determine the effectiveness of this selective DNA-PK inhibitor to enhance the activity of doxorubicin.
# (§1) In both studies, cell viability was assessed after 6 days in culture. Statistical analysis of the combination matrix was performed to assess whether synergy, additivity, or antagonism of the combination treatments were observed.
# (§2) Materials: Primary patient samples (See Tables 16 and 17, below) were excised from mice when they reached 500 mg to 1000 mg in size and processed immediately, or after overnight shipment. Tumors were serially passaged by subcutaneous implantation of 50 mg to 150 mg fragments into the flanks of immunocompromised (nude) mice. Tumors were used within the first 5 or 7 passages.
# Tumor Chemosensitivity Assay (TCA): Primary tumor samples were grown and serially passaged in immunocompromised mice. Tumors were mechanically dissociated into small fragments (1 mm to 2 mm) with scalpels in phosphate buffered saline (PBS or RPMI) and centrifuged at 200×g for 5 minutes at room temperature in 50 mL centrifuge tubes. […] Cells were diluted in Trypan blue, and viable cells that excluded the dye were counted. […]
# [2] = test system: primary human tumors (NSCLC, pancreatic, gastric, esophageal); assay: TCA: Compound B-1 with bleomycin, primary tumors; design: Average Bliss score: scale not given here
# Experimental: as §1, §2
# (§3) Tumor Chemosensitivity Assay (TCA): Primary tumor samples were grown and serially passaged in immunocompromised mice. Tumors were mechanically dissociated into small fragments (1 mm to 2 mm) with scalpels in phosphate buffered saline (PBS or RPMI) and centrifuged at 200×g for 5 minutes at room temperature in 50 mL centrifuge tubes. Samples were resuspended in 10 mL of cell dissociation reagent and enzymatically digested with mechanical agitation for 1 to 3 hours at 37° C., 5% CO2 to a single cell suspension. Ten mL of complete RPMI-1640 media was added to the cell mixture and pipetted up and down 4 to 5 times. The mixture was then passed through a 70 μm or 100 μm mesh strainer to remove undigested tumor. The filtrate was then centrifuged 200×g for 5 minutes at room temperature and resuspended in 20 mL complete RPMI-1640. This cell suspension was slowly layered onto 20 mL of room temperature Histopaque and centrifuged at 400×g for 15 minutes at room temperature without a brake. The interface was transferred to a new 50 mL centrifuge tube and 15 mL of complete RPMI-1640 was added. This suspension was centrifuged at 200×g at room temperature, and the resulting pellet was resuspended in 10 mL of complete PC-1 media, except for pancreatic tumors in which case Pancreatic Medium was used. Cells were diluted in Trypan blue, and viable cells that excluded the dye were counted. Only the larger, tumor cells were included in the cell count. Cells were diluted in complete PC-1 or Pancreatic media, as appropriate for the cells, and were plated at 15,000 to 20,000 cells per well in 100-135 μL in ultra-low attachment U-bottom plates.
# (§4) Compound Addition: For these studies, a 10 mM stock of the DNA-PK inhibitor (Compound B-1 or Compound B-2) was made in DMSO and used to add to cells from most tumors with HP D300 Digital Dispenser (Tecan US, Morrisville, NC, USA), or diluted into the appropriate media (PC-1 or pancreatic media) as a 5-10× stock and added to cells (OVX001 and ENX001, 005). PC-1, pancreatic media, and chemotherapeutics were also added so that final well volume was 150 μL. Doxorubicin was made as DMSO stock of 1 or 10 mM and added to cells for most tumors with HP D300 Digital Dispenser, or diluted into PC-1 as 5-10× stock and added to cells (OVX001 and ENX001, 005). Cisplatin (cis-diammine platinum(II), dichloride) was prepared fresh to 10 mM in warm (60° C.) distilled water and diluted in PC-1 as a 5-10× stock. […] Different starting concentrations, dose ranges, and number of doses were used for each experiment based on the response data available at the time.
# (§5) For bleomycin experiments, combinations with Compound B-1 at all concentrations were run in triplicate. A 6×3 matrix was designed on one plate, consisting of a 2-point concentration range of 0.73 μM and 2.2 μM Compound B-1 plus no treatment control, in 3 columns each of 6 wells. Bleomycin (plus ‘no treatment’ control) was added to 9 wells in rows of this plate. Similar 6×3 matrices were set up for additional agents with different starting concentrations for compound dilutions. For cisplatin experiments the starting concentration was 30 μM which was diluted 1:3. […] For doxorubicin hydrochloride experiments the starting concentration was 5 μM doxorubicin which was diluted 1:3. For gemcitabine experiments the starting concentration was 5 μM gemcitabine which was diluted 1:3. […]
# [3] = test system: primary human tumors (esophageal, gastric); assay: TCA: Compound B-1 with paclitaxel, primary tumors
# Experimental: as §1, §2, §3, §4, §5
structure (smiles),measurement,setting,value
[2H]c1nc(C)nc([2H])c1-c1cc(NC[C@@H](C)c2cccc3c(C(=O)NC)ccnc23)ncn1 [Compound B-2],Average Bliss score,[1]; tumor ENX001 (Endometrial),6
same,Average Bliss score,[1]; tumor ENX005 (Endometrial),21
CNC(=O)c1ccnc2c([C@H](C)CNc3cc(-c4cnc(C)nc4)ncn3)cccc12 [Compound B-1],number of tumors that showed synergy or additivity,[2]; of twenty tumors assessed,20 tumors
same,tumors that showed strong synergy,[2]; six of 20 tumors,30%
same,Average Bliss score,"[2]; tumor ESX005, Esophageal",6
same,Synergy/Additivity/Antagonism,"[2]; tumor ESX005, Esophageal",Synergistic (greater than 5 are considered synergistic)
same,Average Bliss score,"[2]; tumor ESX008, Esophageal",7
same,Synergy/Additivity/Antagonism,"[2]; tumor ESX008, Esophageal",Synergistic (greater than 5 are considered synergistic)
same,Average Bliss score,"[2]; tumor GAX001, Gastric",14
same,Synergy/Additivity/Antagonism,"[2]; tumor GAX001, Gastric",Strongly Synergistic (greater than 10 are considered strongly synergistic)
same,Average Bliss score,"[2]; tumor GAX007, Gastric",5
same,Synergy/Additivity/Antagonism,"[2]; tumor GAX007, Gastric",Synergistic (greater than 5 are considered synergistic)
same,Average Bliss score,"[2]; tumor GAX027, Gastric",11
same,Synergy/Additivity/Antagonism,"[2]; tumor GAX027, Gastric",Strongly Synergistic (greater than 10 are considered strongly synergistic)
same,Average Bliss score,"[2]; tumor OD25982, Lung (NSCLC)",4
same,Synergy/Additivity/Antagonism,"[2]; tumor OD25982, Lung (NSCLC)",Additive (Values between 5 and −5 are considered additive)
same,Average Bliss score,"[2]; tumor OD26131, Lung (NSCLC)",9
same,Synergy/Additivity/Antagonism,"[2]; tumor OD26131, Lung (NSCLC)",Synergistic (greater than 5 are considered synergistic)
same,Average Bliss score,"[2]; tumor OD26749, Lung (NSCLC)",10
same,Synergy/Additivity/Antagonism,"[2]; tumor OD26749, Lung (NSCLC)",Strongly Synergistic (greater than 10 are considered strongly synergistic)
same,Average Bliss score,"[2]; tumor OD29498, Lung (NSCLC)",3
same,Synergy/Additivity/Antagonism,"[2]; tumor OD29498, Lung (NSCLC)",Additive (Values between 5 and −5 are considered additive)
same,Average Bliss score,"[2]; tumor OD33117, Lung (NSCLC)",9
same,Synergy/Additivity/Antagonism,"[2]; tumor OD33117, Lung (NSCLC)",Synergistic (greater than 5 are considered synergistic)
same,Average Bliss score,"[2]; tumor OD33966, Lung (NSCLC)",3
same,Synergy/Additivity/Antagonism,"[2]; tumor OD33966, Lung (NSCLC)",Additive (Values between 5 and −5 are considered additive)
same,Average Bliss score,"[2]; tumor OD36088, Lung (NSCLC)",14
same,Synergy/Additivity/Antagonism,"[2]; tumor OD36088, Lung (NSCLC)",Strongly Synergistic (greater than 10 are considered strongly synergistic)
same,Average Bliss score,"[2]; tumor P110323, Pancreatic",10
same,Synergy/Additivity/Antagonism,"[2]; tumor P110323, Pancreatic",Strongly Synergistic (greater than 10 are considered strongly synergistic)
same,Average Bliss score,"[2]; tumor P110325, Pancreatic",0
same,Synergy/Additivity/Antagonism,"[2]; tumor P110325, Pancreatic",Additive (Values between 5 and −5 are considered additive)
same,Average Bliss score,"[2]; tumor P110408, Pancreatic",7
same,Synergy/Additivity/Antagonism,"[2]; tumor P110408, Pancreatic",Synergistic (greater than 5 are considered synergistic)
same,Average Bliss score,"[2]; tumor P110413, Pancreatic",6
same,Synergy/Additivity/Antagonism,"[2]; tumor P110413, Pancreatic",Synergistic (greater than 5 are considered synergistic)
same,Average Bliss score,"[2]; tumor P110504, Pancreatic",8
same,Synergy/Additivity/Antagonism,"[2]; tumor P110504, Pancreatic",Synergistic (greater than 5 are considered synergistic)
same,Average Bliss score,"[2]; tumor P110603, Pancreatic",14
same,Synergy/Additivity/Antagonism,"[2]; tumor P110603, Pancreatic",Strongly Synergistic (greater than 10 are considered strongly synergistic)
same,Average Bliss score,"[2]; tumor TS110310, Lung (NSCLC)",2
same,Synergy/Additivity/Antagonism,"[2]; tumor TS110310, Lung (NSCLC)",Additive (Values between 5 and −5 are considered additive)
same,Average Bliss score,"[2]; tumor YAS111611, Lung (NSCLC)",6
same,Synergy/Additivity/Antagonism,"[2]; tumor YAS111611, Lung (NSCLC)",Synergistic (greater than 5 are considered synergistic)
same,tumors that showed additivity,[3]; four of 5 tumors,80%
same,tumors that showed antagonism,[3]; one of 5 tumors,20%
same,Average Bliss score,"[3]; tumor ESX005, Esophageal",−3
same,Synergy/Additivity/Antagonism,"[3]; tumor ESX005, Esophageal",Additive (Values between 5 and −5 are considered additive)
same,Average Bliss score,"[3]; tumor ESX008, Esophageal",−5
same,Synergy/Additivity/Antagonism,"[3]; tumor ESX008, Esophageal",Antagonistic (less than −5 are considered antagonistic)
same,Average Bliss score,"[3]; tumor GAX001, Gastric",−1
same,Synergy/Additivity/Antagonism,"[3]; tumor GAX001, Gastric",Additive (Values between 5 and −5 are considered additive)
same,Average Bliss score,"[3]; tumor GAX007, Gastric",−4
same,Synergy/Additivity/Antagonism,"[3]; tumor GAX007, Gastric",Additive (Values between 5 and −5 are considered additive)
same,Average Bliss score,"[3]; tumor GAX027, Gastric",1
same,Synergy/Additivity/Antagonism,"[3]; tumor GAX027, Gastric",Additive (Values between 5 and −5 are considered additive)
